Measurements reported in patent US11066414B2, “Cot modulators and methods of use thereof” (Gilead Sciences, Inc., priority 2015, dated 2021).
Where two headings read alike, the source gives them in different places.

Target: Human Cot (Homo sapiens (Human), UniProt P41279)
Test: High Throughput Cot Biochemical Assay
Conditions: Cot HTRF (TR-FRET) biochemical assay

Chain of Human Cot (P41279 30-397): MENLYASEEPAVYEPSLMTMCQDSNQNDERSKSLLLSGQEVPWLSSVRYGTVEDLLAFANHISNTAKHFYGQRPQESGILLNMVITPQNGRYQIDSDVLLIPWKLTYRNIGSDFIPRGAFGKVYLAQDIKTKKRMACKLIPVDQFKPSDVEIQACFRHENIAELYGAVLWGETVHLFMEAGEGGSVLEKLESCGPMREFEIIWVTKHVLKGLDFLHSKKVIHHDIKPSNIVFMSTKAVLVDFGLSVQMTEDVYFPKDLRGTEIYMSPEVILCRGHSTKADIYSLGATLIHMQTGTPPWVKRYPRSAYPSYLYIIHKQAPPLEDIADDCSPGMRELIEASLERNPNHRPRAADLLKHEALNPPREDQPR

SMILES | IC50 (IC50 HTRF) [nM] | IC50 (read-out: IC50 HTRF) [nM]
N#Cc1cnc2c(Cl)cc(N[C@H](c3cn(CCO)nn3)c3cnc(Cl)cc3Cl)cc2c1Nc1ccc(F)c(Cl)c1 [Example 330, (S)-8-chloro-4-((3-chloro-4-fluorophenyl)amino)-6-(((4,6-dichloropyridin-3-yl)(1-(2-hydroxy-ethyl)-1H-1,2,3-triazol-4-yl)methyl)-amino)quinoline-3-carbonitrile] | 59 | –
N#Cc1csc([C@H](Nc2cc(Cl)c3ncc(C#N)c(Nc4ccc(F)c(Cl)c4)c3c2)c2cn(CCN3CCOCC3)nn2)c1 [Example 332, (R)-8-chloro-4-((3-chloro-4-fluorophenyl)amino)-6-(((4-cyanothiophen-2-yl)(1-(2-morpho-linoethyl)-1H-1,2,3-triazol-4-yl)methyl)amino)quinoline-3-carbonitrile] | – | 65
N#Cc1csc([C@H](Nc2cc(Cl)c3ncc(C#N)c(Nc4ccc(F)c(Cl)c4)c3c2)c2cn(CCO)nn2)c1 [Example 333, (R)-8-chloro-4-((3-chloro-4-fluorophenyl)amino)-6-(((4-cyanothiophen-2-yl)(1-(2-hydroxyethyl)-1H-1,2,3-triazol-4-yl)methyl)amino)quinoline-3-carbonitrile] | 3 | –
N#Cc1cnc2c(Cl)cc(N[C@@H](c3cccnc3)c3cn(CCO)nn3)cc2c1Nc1ccc(F)c(Cl)c1 [Example 336, (S)-8-chloro-4-((3-chloro-4-fluoro-phenyl)amino)-6-(((1-(2-hydroxyethyl)-1H-1,2,3-triazol-4-yl)(pyridin-3-yl)methyl)amino)quinoline-3-carbonitrile] | 2 | –
COCCn1cc([C@@H](Nc2cc(Cl)c3ncc(C#N)c(Nc4ccc(F)c(Cl)c4)c3c2)c2cc(C#N)cs2)nn1 [Example 337, (R)-8-chloro-4-((3-chloro-4-fluorophenyl)amino)-6-(((4-cyanothiophen-2-yl)(1-(2-methoxy-ethyl)-1H-1,2,3-triazol-4-yl)methyl)amino)quinoline-3-carbonitrile] | 16 | –
Cn1cc([C@H](Nc2cc(Cl)c3ncc(C#N)c(Nc4ccc(F)c(Cl)c4)c3c2)c2cccnc2)nn1 [Example 343, (R)-8-chloro-4-((3-chloro-4-fluorophenyl)amino)-6-(((1-methyl-1H-1,2,3-triazol-4-yl)(pyridin-3-yl)methyl)amino)quinoline-3-carbonitrile] | – | 504
N#Cc1cnc2c(Cl)cc(N[C@@H](c3cscn3)c3cn(CCO)nn3)cc2c1Nc1ccc(F)c(Cl)c1 [Example 356, (S)-8-chloro-4-((3-chloro-4-fluorophenyl)amino)-6-(((1-(2-hydroxyethyl)-1H-1,2,3-triazol-4-yl)(thiazol-4-yl)methyl)amino)-quinoline-3-carbonitrile] | 2 | –
CCN1CCC(n2cc([C@@H](Nc3cc(Cl)c4ncc(C#N)c(Nc5ccc(F)c(Cl)c5)c4c3)c3ccc(C(F)(F)F)s3)nn2)CC1 [Example 365, (R)-8-chloro-4-((3-chloro-4-fluorophenyl)amino)-6-(((1-(1-ethylpiperidin-4-yl)-1H-1,2,3-triazol-4-yl)(5-(trifluoromethyl)thiophen-2-yl)methyl)amino)quinoline-3-carbonitrile] | 38 | –

The remaining lines, values ahead:

IC50 (IC50 HTRF) [nM] | IC50 (read-out: IC50 HTRF) [nM] | SMILES
153 | – | CC(C)(C)OC(=O)N1CCC(n2cc([C@@H](Nc3cc(Cl)c4ncc(C#N)c(Nc5ccc(F)c(Cl)c5)c4c3)c3cncs3)nn2)CC1 [Example 384, tert-butyl (R)-4-(4-(((8-chloro-4-((3-chloro-4-fluorophenyl)amino)-3-cyanoquinolin-6-yl)amino)(thiazol-5-yl)methyl)-1H-1,2,3-triazol-1-yl)piperidine-1-carboxylate]
36 | – | N#Cc1cnc2c(Cl)cc(N[C@H](c3cn(C4CCNCC4)nn3)c3ccc(Cl)s3)cc2c1Nc1ccc(F)c(Cl)c1 [Example 386, (R)-8-chloro-4-((3-chloro-4-fluoro-phenyl)amino)-6-(((5-chlorothiophen-2-yl)(1-(piperidin-4-yl)-1H-1,2,3-triazol-4-yl)methyl)amino)quinoline-3-carbonitrile]
18 | – | N#Cc1cnc2c(Cl)cc(N[C@H](c3cn(C4CCNCC4)nn3)c3sccc3Cl)cc2c1Nc1ccc(F)c(Cl)c1 [Example 387, (R)-8-chloro-4-((3-chloro-4-fluoro-phenyl)amino)-6-(((3-chlorothiophen-2-yl)(1-(piperidin-4-yl)-1H-1,2,3-triazol-4-yl)methyl)amino)quinoline-3-carbonitrile]
10 | – | N#Cc1cnc2c(Cl)cc(N[C@H](c3cn(C4CCNCC4)nn3)c3cccs3)cc2c1Nc1ccc(F)c(Cl)c1 [Example 388, (R)-8-chloro-4-((3-chloro-4-fluoro-phenyl)amino)-6-(((1-(piperidin-4-yl)-1H-1,2,3-triazol-4-yl)(thiophen-2-yl)methyl)amino)quinoline-3-carbonitrile]
3 | – | CCN1CCC(n2cc([C@@H](Nc3cc(Cl)c4ncc(C#N)c(Nc5ccc(F)c(Cl)c5)c4c3)c3ccsc3)nn2)CC1 [Example 392, (S)-8-chloro-4-((3-chloro-4-fluoro-phenyl)amino)-6-(((1-(1-ethylpiperidin-4-yl)-1H-1,2,3-triazol-4-yl)(thiophen-3-yl)methyl)amino)quinoline-3-carbonitrile]
– | 5 | N#Cc1cnc2c(Cl)cc(N[C@@H](c3ccsc3)c3cn(C4CCNCC4)nn3)cc2c1Nc1ccc(F)c(Cl)c1 [Example 393, (S)-8-chloro-4-t-((3-chloro-4-fluoro-phenyl)amino)-6-(((1-(piperidin-4-yl)-1H-1,2,3-triazol-4-yl)(thiophen-3-yl)methyl)amino)quinoline-3-carbonitrile]
147 | – | CC(C)(C)OC(=O)N1CCC(n2cc([C@@H](Nc3cc(Cl)c4ncc(C#N)c(Nc5ccc(F)c(Cl)c5)c4c3)c3ccsc3)nn2)CC1 [Example 394, tert-butyl (S)-4-(4-(((8-chloro-4-((3-chloro-4-fluorophenyl)amino)-3-cyanoquinolin-6-yl)amino)(thiophen-3-yl)methyl)-1H-1,2,3-triazol-1-yl)piperidine-1-carboxylate]
4 | – | Cn1cc(C(Nc2cc(Cl)c3ncc(C#N)c(Nc4ccc(F)c(Cl)c4)c3c2)c2cccnc2)nn1 (stereo not drawn) [Example 395, 8-chloro-4-((3-chloro-4-fluoro-phenyl)amino)-6-(((1-methyl-1H-1,2,3-triazol-4-yl)(pyridin-3-yl)methyl)amino)quinoline-3-carbonitrile]
43 | – | CCN1CCC(n2cc(C(Nc3cc(Cl)c4ncc(C#N)c(Nc5ccc(F)c(Cl)c5)c4c3)c3cn(C)nn3)nn2)CC1 (stereo not drawn) [Example 396, 8-chloro-4-((3-chloro-4-fluoro-phenyl)amino)-6-(((1-(1-ethyl-piperidin-4-yl)-1H-1,2,3-triazol-4-yl)(1-methyl-1H-1,2,3-triazol-4-yl)methyl)amino)quinoline-3-carbonitrile]
46 | – | Cn1cc(C(Nc2cc(Cl)c3ncc(C#N)c(Nc4ccc(F)c(Cl)c4)c3c2)c2cn(C3CCNCC3)nn2)nn1 (stereo not drawn) [Example 397, 8-chloro-4-((3-chloro-4-fluoro-phenyl)amino)-6-(((1-methyl-1H-1,2,3-triazol-4-yl)(1-(piperidin-4-yl)-1H-1,2,3-triazol-4-yl)methyl)amino)-quinoline-3-carbonitrile]
